Measured values: patent US10660898B2, “Benzimidazole derivatives as PI3 kinase inhibitors” (GLAXOSMITHKLINE LLC, priority 2010, dated 2020)

Columns and labels:
C32 = assay: Anchorage independent soft agar tumor growth assay; type: cell-based; conditions: C32 skin melanoma, PTEN p.55fs*, No protein
Protocol: (§1) Cellular Assays—Cell Growth Inhibition Assay in PTEN Wild-Type or PTEN Deficient Tumor Cell Lines Twenty-two Phosphatase and Tensin Homolog (PTEN) wild-type or PTEN deficient tumor cell lines were cultured generally according to instructions supplied by cell culture supplier American Type Culture Collection, Manassas, Va., with 10% fetal bovine serum at 5% CO2 and 37° C. Cells were seeded into either a T-75 or a T-175 flask 3-4 days prior to 96-well assay plating such that the flasks were approximately 70-80% confluent of the time of harvest. Cells were harvested using 0.25% trypsin-EDTA (Invitrogen #25200056). Trypan Blue exclusion staining was used to determine cell number. Viable cells were plated in clear, flat bottom 96-well plates (BD #353075) under anchorage independent conditions at 2,000-10,000 cells per well depending on the cell line. To generate anchorage independent growth conditions, a 5% agar stock solution in water was made and autoclaved to melt and sterilize. From the 5% agar solution, a 0.6% agar/media+10% fetal bovine serum (FBS) solution was made to generate a bottom agar layer in the plates to prevent cell attachment. Seventy five microliters per well of the 0.6% agar-media solution was added to the plates. After solidification, a cell solution of 266,870 to 1, 334,022 cells (depending on the cell line) in 10 ml of 0.3% agar/media+10% FBS was made and 75 μl of the cell/media/agar suspension was added to the plates. After the cell layer solidified, 50 μl of media+10% FBS was added to the top of the cells. A 0.3% Brij 35 (Sigma B4184) solution in media+10% FBS was added to column 12 as a background subtraction control. The cells were incubated overnight at 5% CO2 and 37° C. The next day one plate of cells was processed at the time of compound addition to quantify the starting number of cells (T=0 or T0). […] Three hundred microliters of media was added to the compound dilutions. Ten microliters per well of the serial dilutions was added to the cells and the plates incubated for 6 days at 5% CO2 and 37° C. […] Following the 6-day incubation, 20 μl of Alamar Blue (Invitrogen # DAL1100) was added to the cells, incubated at 5% CO2 and 37° C. for 6 hours and the plates read on a Spectramax (Gemini EM) at 530 nm (excitation) and 590 nm (emission) with the auto cut-off disabled. For analysis of cell growth inhibition dose response curves, the data was plotted as the percent of the DMSO-treated control samples (DMSO samples set to 100%). […] Values from wells containing 0.3% Brij 35 (under anchorage independent conditions) were subtracted from all samples for background correction.

HCC70 = assay: Anchorage independent soft agar tumor growth assay; type: cell-based; conditions: HCC70 breast carcinoma, PTEN p.F90fs*9, No protein
Protocol: as §1

MDA-MB-468 = assay: Anchorage independent soft agar tumor growth assay; type: cell-based; conditions: MDA-MB-468 breast carcinoma, PTEN p.?, L70Fs*7, No protein
Protocol: as §1

U-87MG = assay: Anchorage independent soft agar tumor growth assay; type: cell-based; conditions: U-87MG CNS glioblastoma, PTEN p.? (splice site mutation), No protein
Protocol: as §1

UM-UC-3 = assay: Anchorage independent soft agar tumor growth assay; type: cell-based; conditions: UM-UC-3 bladder transitional, PTEN Loss, No protein
Protocol: as §1

WM-115 = assay: Anchorage independent soft agar tumor growth assay; type: cell-based; conditions: WM-115 skin melanoma, PTEN p.165fs*, No protein
Protocol: as §1

pAKT (pAKT/tAKT) = assay: Pharmacodynamic effects in PC-3 xenograft tumors (MSD phospho/total AKT); type: in vivo, mouse; conditions: 3 mg/kg or 10 mg/kg, 1, 2, 4, 6, 8, 10, and 24 hours
Protocol: Female nude mice (Charles River Laboratories, Wilmington, Del.; strain CD-1-Foxn1, 6 weeks of age) were injected subcutaneously with 2 million PC-3 (human prostate carcinoma) cells mixed 1:1 with Matrigel in the flank. Tumors were allowed to grow for approximately 5 weeks. […] The tumor was excised. Half of each tumor was immediately processed by Medicon (BD Catalog #340592) in 1 mL Meso-Scale Discovery (MSD) lysis buffer with protease inhibitors (Roche complete protease cocktail, cat #04 693 116 001) and phosphatase inhibitors (Sigma, cat # P2850 and P-5726) for 30-60 seconds and transferred to 1.5 mL Eppendorf tubes. Tubes remained on wet ice until they were centrifuged for 10 minutes at 4° C. at maximum speed in a tabletop refrigerated centrifuge. Tumor lysates were serially diluted in 96-well polypropylene plates on wet ice. Lysates (150 μL) were loaded in row 1; rows 2-12 were loaded with 75 μL of complete Meso Scale Discovery (MSD) lysis buffer (supplied in MSD kit; # […]-3). […] Plates were washed as described above, before the addition of 150 µL of MSD read buffer and read immediately on a 6000 MSD plate reader. […] P/T AKT was calculated as shown: (phospho AKT(Ser473) signal)/[(phospho AKT(Ser473) signal)+(total AKT signal)]. […] Percent inhibition was calculated for each group as follows: 100-[(sample P/T AKT value)/(vehicle P/T AKT value)]*100.

[1] = percent of DMSO-treated control
[2] = Homo sapiens, 144 h, 6-day incubation, Alamar Blue, read-out: Compound EC50 (nM) ± StDev

EC50 (C32; [2]): 8 ± 2 nM
EC50 (MDA-MB-468; [2]): 89 ± 55 nM
EC50 (U-87MG; [2]): 2980 ± 2770 nM
EC50 (UM-UC-3; Homo sapiens, UMUC3, 144 h, 6-day incubation, Alamar Blue, read-out: Compound EC50 (nM) ± StDev): 10 ± 8 nM
EC50 (WM-115; [2]): 8 ± 3 nM
SMILES: Cc1c(Cn2c(C)nc3c(C(=O)O)cc(N4CCOCC4)cc32)cccc1C(F)(F)F [Example 31, 2-methyl-1-{[2-methyl-3-(trifluoromethyl)phenol]methyl}-6-(4-morpholinyl)-1H-benzimidazole-4-carboxylic acid]
Compound Ymin ± StDev (C32; [1]): 20 ± 14
Compound Ymin ± StDev (HCC70; [1]): 27 ± 8
EC50 (HCC70; [2]): 53 ± 21 nM
Compound Ymin ± StDev (MDA-MB-468; [1]): 44 ± 6
Compound Ymin ± StDev (U-87MG; [1]): 34 ± 18
Compound Ymin ± StDev (UM-UC-3; [1]): 83 ± 29
Compound Ymin ± StDev (WM-115; [1]): 54 ± 14
Inhibition of the pharmacodynamic marker pAKT (pAKT/tAKT) (pAKT (pAKT/tAKT)): dose dependent inhibition
